This note sets out measurements from patent US20220380829A1, “Method of Diagonosizing Pathogens and their Antimicrobial Susceptibility” (HANGZHOU DIAN MEDICAL LABORATORY CO., LTD., priority 2019, published 2022).

Common to all, as to format: cell-based
For one experiment, the system named is Klebsiella pneumoniae. The experiment in a line: VITEK2 Compact AST (AST-GN13/GN334 cards), gold standard culture-based AST. Conditions: for Resistance profiles by VITEK2: R: number of resistant among 24 blinds; for Resistance profiles by VITEK2: S: number of susceptible among 24 blinds. From the text:
Step 1. Sample collection and drug susceptibility verification: 240 clinical Klebsiella pneumoniae isolates were collected from 23 hospitals across china in a period between January 2018 and March 2019.

In the next experiment the test system is Candida albicans. As to the kind of experiment: Broth microdilution (M27-A3, M27-S4), gold standard culture-based AST. Conditions: for Results by broth microdilution method: R: number of resistant among 12 blinds; for Results by broth microdilution method: S: number of susceptible among 12 blinds. As for the experimental part: Step 1. Sample collection and drug susceptibility verification: 120 clinical Candida albicans isolates were collected from 31 hospitals across china in a period between September 2015 and January 2019. All isolates were tested for drug susceptibility using broth microdilution method following the M27-A3 and M27-S4 guidelines of NCCLS, and the results were used as the gold standard (culture-based AST).

The next experiment has as its system Staphylococcus aureus. As to the kind of experiment: VITEK2 Compact AST (AST-P639 card), gold standard culture-based AST. The conditions noted are these: for Resistance profiles by VITEK2: R: number of resistant among 22 blinds; for Resistance profiles by VITEK2: S: number of susceptible among 22 blinds. The method, then:
Step 1. Sample collection and drug susceptibility verification: 160 clinical Staphylococcus aureus isolates were collected from 20 hospitals across china in a period between June 2018 and June 2019. All isolates were tested for drug susceptibility using bioMérieux Vitek2 Compact System and AST-P639 card, and specifically, and the results were used as the gold standard (culture-based AST).

The subject of the next experiment is Enterococcus faecalis. As to the kind of experiment: VITEK2 Compact AST (AST-P639 cards), gold standard culture-based AST.
Another experiment has as its system Streptococcus pneumoniae. The experiment in a line: VITEK2 Compact AST (AST-GP68 cards) with penicillin disc diffusion, gold standard culture-based AST. The method, then:
Step 1. Drug susceptibility verification: The Streptococcus pneumoniae isolates were tested for drug susceptibility using bioMérieux Vitek2 Compact System and AST-GP68 cards, and specifically, the susceptibility of penicillin was double checked by disc diffusion method (OXOID, CT0043B), and the combined results were used as the gold standard (culture-based AST).
Step 1. Sample collection and drug susceptibility verification: 48 clinical Streptococcus pneumoniae isolates were collected from 18 hospitals across china in a period between May 2017 and October 2019. All isolates were tested for drug susceptibility using bioMérieux Vitek2 Compact System and AST-GP68 card, and specifically, the susceptibility of penicillin was double checked by disc diffusion method (OXOID, CT0043B), and the combined results were used as the gold standard (culture-based AST).

The mark [1] stands for this setting: Resistance profile classification A.
Setting [2] is: Resistance profile classification B.
Where [3] appears, read: Resistance profile classification C.
[4] abbreviates: Resistance profile classification D.
Setting [5] is: Resistance profile classification G.
Setting [6] is: Resistance profile classification H.
Setting [7] is: Resistance profile classification I.
Setting [8] is: Resistance profile classification J.
[9] abbreviates: Resistance profile classification S.

Starred links: 1 amine or outer side, 2 acyl side, 3 side chain; linkers in the order of their positions; H or OH if unused. Positions of bridges follow the written chain, without caps; N, C: chain ends. Non-standard residues stand in square brackets, D forms with d. Residues, ends and D or L forms follow the SMILES beside them. *: point of attachment. hTyr(3S-OH,4S-OH,3'-OSO3H) = N[C@H](C(=O)O)[C@H](O)[C@@H](O)c1ccc(O)c(OS(=O)(=O)O)c1; Orn(4R-OH,5R-OH) = O=C([C@H](C[C@@H](O)[C@@H](O)N[*:3])N[*:1])[*:2]; Pro(3S-OH,4S-Me) = C[C@H]1CN[C@H](C(=O)O)[C@H]1O; X1 = CCCCCOc1ccc(-c2cc(-c3ccc(C(=O)*)cc3)no2)cc1; Gln(3R-OH) = NC(=O)C[C@@H](O)[C@H](N)C(=O)O; Hyp = O=C(O)[C@@H]1C[C@@H](O)CN1

With Cefoperazone-sulbactam, in the experiment on Klebsiella pneumoniae, the “Resistance profiles by VITEK2: R” value is listed as 13 and the “Resistance profiles by VITEK2: S” value is 11.
Consider Amoxicillin-clavulanate, for which, in the experiment with Klebsiella pneumoniae, the “Resistance profiles by VITEK2: R” value was 16 and the “Resistance profiles by VITEK2: S” value was 8.
As to `CCCCCOc1ccc(-c2cc(-c3ccc(C(=O)N[C@H]4C[C@@H](O)[C@@H](O)NC(=O)[C@@H]5[C@@H](O)[C@@H](C)CN5C(=O)[C@H]([C@H](O)CC(N)=O)NC(=O)[C@H]([C@H](O)[C@@H](O)c5ccc(O)c(OS(=O)(=O)O)c5)NC(=O)[C@@H]5C[C@@H](O)CN5C(=O)[C@H]([C@@H](C)O)NC4=O)cc3)no2)cc1` [Micafungin] (X1-[Orn(4R-OH,5R-OH)]T[Hyp][hTyr(3S-OH,4S-OH,3'-OSO3H)][Gln(3R-OH)][Pro(3S-OH,4S-Me)]; lactam 1-C), in the experiment on Candida albicans, the “Results by broth microdilution method: R” value is on record as 0 and the “Results by broth microdilution method: S” value is given as 12.
The like results for `CC[C@H](C)C[C@H](C)CCCCCCCCC(=O)N[C@H]1C[C@@H](O)[C@@H](NCCN)NC(=O)[C@@H]2[C@@H](O)CCN2C(=O)[C@H]([C@H](O)CCN)NC(=O)[C@H]([C@H](O)[C@@H](O)c2ccc(O)cc2)NC(=O)[C@@H]2C[C@@H](O)CN2C(=O)[C@H]([C@@H](C)O)NC1=O` [Caspofungin] were, in that order, 0 and 12.
penicillin: the “Resistance profiles by VITEK2: R” value in the experiment with Staphylococcus aureus came out at 20. Further, the “Resistance profiles by VITEK2: S” value in the experiment with Staphylococcus aureus is given as 2. In addition, the “Susceptibility of Emterococcus faecalis to 11 antibacterial drugs” value (“Susceptibility of Emterococcus faecalis” below) with Enterococcus faecalis (setting [1]) is given as “R”; in the experiment with Enterococcus faecalis (setting [2]), “R”; in the experiment on Enterococcus faecalis (setting [3]), “R”; in the experiment with Enterococcus faecalis (setting [4]), “R”; in the experiment on Enterococcus faecalis (Resistance profile classification F (first line so labelled, r12)) it was “R”; in the experiment with Enterococcus faecalis (Resistance profile classification F (second line so labelled, r13)), “R”. Further, the “Susceptibility of Emterococcus faecalis” value in the experiment with Enterococcus faecalis (setting [5]), in the experiment on Enterococcus faecalis (setting [6]), in the experiment on Enterococcus faecalis (setting [7]), in the experiment with Enterococcus faecalis (setting [8]), in the experiment with Enterococcus faecalis (Resistance profile classification K) and in the experiment with Enterococcus faecalis (Resistance profile classification L) was “S” each time. Moreover, the “Susceptibility of Emterococcus faecalis” value in the experiment on Enterococcus faecalis (Resistance profile classification M) and in the experiment on Enterococcus faecalis (setting [9]) was “S” throughout. The “Blind 1 by AST” value with Streptococcus pneumoniae (Blind 1) is recorded as “S”. The “Susceptibility of Streptococcus pneumoniae to 14 antibacterial drugs” value in the experiment on Streptococcus pneumoniae (setting [1]), in the experiment on Streptococcus pneumoniae (setting [2]), with Streptococcus pneumoniae (setting [3]), in the experiment with Streptococcus pneumoniae (setting [4]), in the experiment with Streptococcus pneumoniae (Resistance profile classification E) and with Streptococcus pneumoniae (Resistance profile classification F) was “R” throughout. The “Susceptibility of Streptococcus pneumoniae to 14 antibacterial drugs” value with Streptococcus pneumoniae (setting [5]), in the experiment on Streptococcus pneumoniae (setting [6]), in the experiment on Streptococcus pneumoniae (setting [7]), in the experiment on Streptococcus pneumoniae (setting [8]) and in the experiment with Streptococcus pneumoniae (setting [9]) was “S” in each case. Besides, the “blind 2 by AST” value in the experiment on Streptococcus pneumoniae (blind 2) is on record as “R”.
Consider Piperacillin-tazobactam, for which, in the experiment on Klebsiella pneumoniae, the “Resistance profiles by VITEK2: R” value turned out to be 13 and the “Resistance profiles by VITEK2: S” value is on record as 11.
The like results for Ampicillin-sulbactam were, in that order, 15 and 9.
`C[C@@H](c1ncncc1F)[C@](O)(Cn1cncn1)c1ccc(F)cc1F` [Voriconazole]: in the experiment with Candida albicans, the “Results by broth microdilution method: R” value was determined as 2 and the “Results by broth microdilution method: S” value was 10.
With Teicoplanin, in the experiment on Staphylococcus aureus, the “Resistance profiles by VITEK2: R” value turned out to be 0 and the “Resistance profiles by VITEK2: S” value is recorded as 22.
Turning to `C[C@@H]1[C@H](O)[C@@H](C)/C=C/C=C/C=C/C=C/C=C/C=C/C=C/[C@H](O[C@@H]2O[C@H](C)[C@@H](O)[C@H](N)[C@@H]2O)C[C@@H]2O[C@](O)(C[C@@H](O)C[C@@H](O)[C@H](O)CC[C@@H](O)C[C@@H](O)CC(=O)O[C@H]1C)C[C@H](O)[C@H]2C(=O)O` [Amphotericin B], in the experiment with Candida albicans, the “Results by broth microdilution method: R” value was found to be 0 and the “Results by broth microdilution method: S” value turned out to be 12.
Turning to Gentamicin, in the experiment with Staphylococcus aureus, the “Resistance profiles by VITEK2: R” value came to 7 and the “Resistance profiles by VITEK2: S” value worked out at 15. In the experiment on Klebsiella pneumoniae, the “Resistance profiles by VITEK2: R” value worked out at 12 and the “Resistance profiles by VITEK2: S” value was determined as 12.
As to `CCC(C)n1ncn(-c2ccc(N3CCN(c4ccc(OCC5COC(Cn6cncn6)(c6ccc(Cl)cc6Cl)O5)cc4)CC3)cc2)c1=O` (centres unmarked) [Itraconazole], in the experiment on Candida albicans, the “Results by broth microdilution method: R” value came out at 2 and the “Results by broth microdilution method: S” value is recorded as 10.
